From patent publication US5196421A, “Excitatory amino acid receptor antagonists in methods for the use thereof” (priority 1992, dated 1993) come the findings set out here.

Experiment [1] has as its target T1, Strychnine-Insensitive [^3 H]Glycine Binding Sites, washed membranes of rat brain cortex (Rattus norvegicus, UniProt P35439).
T1 construct: washed membranes of rat brain cortex; from tissue; host or cells: brain cortex membranes, male Sprague-Dawley rats (150-175 g)
The experiment is described as follows: biochemical. The conditions noted are these: for inhibition at 10 µM: 1 h, read-out: [^3 H]-Glycine Binding % DSPL10 @ 10 μM, 10 μM test compound, 60 minutes on ice; for [^3 H]-Glycine Binding % DSPL10 @ 10 μM: 10 μM test compound, 60 minutes on ice. The procedure: (§1) Referring to Table IV, there are shown the results obtained in testing a representative number of these compounds. In Table IV, the activity of the compounds for EAA receptor binding is indicated. Compounds were evaluated for their ability to displace [^3 H]-CGS191755, [^3 H]-glycine, [^3 H]-AMPA and [^3 H]-kainate at a screening concentration of 10 μM.
(§2) Binding assays, except for glycine binding, were performed in accordance with the methods described in Schoepp et al., J. Pharmacology and Exp. Therap., Vol. 255, No. 3, pp. 1301-1308 (1990). For all binding assays, male Sprague-Dawley rats (150-175 g) were used. Displacement of the specific binding of ^3 H]CGS19755 (10 nM) to Triton-X-treated synaptosomal membranes of rat forebrain was used to determine NMDA receptor affinity. Nonspecific binding was determined using 10 μM L-glutamate. Samples were incubated in an ice bath for 30 minutes, and bound ligand was separated from the free ligand by rapid filtration through Whatman GF/B glass fiber filters.
The compounds were examined for their ability to displace [^3 H]-glycine from washed membranes of rat brain cortex according to the methods of Shinohara et al., "Ontogeny of Strychnine-Insensitive [^3 H]Glycine Binding Sites in Rat Forebrain", Neurosci. Lett. 105 (1990) 307-311. In each assay, […] [^3 H]-glycine and 25 μg tissue were incubated with test compounds (10 μM in a total volume of 0.5 ml for 60 minutes on ice; incubations were terminated by centrifugation. Non-specific binding was defined as that remaining in the presence of 10 μM D-serine.

Experiment [2] relates to AMPA receptor ([^3 H]AMPA binding, crude membranes of rat forebrain). The experiment is described as follows: [^3 H]-AMPA displacement, EAA receptor binding. The conditions noted are these: 10 μM test compound, [^3 H]AMPA 5 nM, 100 mM KSCN. The procedure:
as §1, §2
The binding of [^3 H]AMPA (5 nM) was conducted with crude membranes of rat forebrain in the presence of 100 mM KSCN, as described by Nielsen et al., "Studies on Receptor-Active Conformations of Excitatory Amino Acid Agonists and Antagonists," Eur. J. Med. Chem. Chim. Ther. 21:433-437 (1986). Nonspecific binding was determined with 10 μM nonlabeled AMPA.

In experiment [3] the test system is kainate (KA) receptor ([^3 H]Kainate binding, washed synaptosomal membranes from the rat forebrain). The experiment is described as follows: [^3 H]-kainate displacement, EAA receptor binding. The conditions noted are these: 10 μM test compound, [^3 H]Kainate 5 nM, pH 7.4, 30 min. The procedure:
as §1, §2
[^3 H]Kainate binding was performed using washed synaptosomal membranes from the rat forebrain, prepared as described by Simon et al., "Binding of [^3 H]Kainic Acid, an Analogue of L-Glutamate, to Brain Membranes," J. Neurochem. 26:141-147 (1976). [^3 H]Kainate (5 nM) was added to 50 mM Tris-HCl buffer (pH 7.4 at 4°) containing 200-300 μg/ml of tissue protein. Samples were incubated for 30 minutes in an ice bath and then rapidly filtered using a Brandel cell harvester and Whatman GF/C filters. Filters were washed twice with 3 ml of cold buffer. Nonspecific binding was determined using 100 μM nonlabeled kainate.

Molecules are shown by their SMILES. “And” between values parts separate entries of the source, which are not always exact repeats. Equal values may be shown once.

With `Cc1nnc2cnc3cc(Cl)c(Cl)cc3n12` [Compound 1, 1-methyl-7,8-dichloro-1,2,4-triazolo[4,3-a]quinoxaline], the inhibition at 10 µM in experiment [1] came to 0%. Besides, the “AMPA % DSPL @ 10 μM” value in experiment [2] is on record as 35.1%. Moreover, the “KA % DSPL @ 10 μM” value in experiment [3] is on record as 16.8%.

As to `Cc1nnc2c(=O)[nH]c3cc(Cl)c(Cl)cc3n12` [Compound 2, 1-methyl-7,8-dichloro-1,2,4-triazolo[4,3-a]quinoxalin-4(5H)-one], the inhibition at 10 µM in experiment [1] turned out to be 18%. Moreover, the “AMPA % DSPL @ 10 μM” value in experiment [2] (10 µM) is 78.3% and 75.1%. Moreover, the “KA % DSPL @ 10 μM” value in experiment [3] is on record as 28.0%.

On to `CCc1nnc2cnc3cc(Cl)c(Cl)cc3n12` [Compound 3, 1-ethyl-7,8-dichloro-1,2,4-triazolo[4,3-a]quinoxaline], for which the inhibition at 10 µM in experiment [1] worked out at 63%. For the same molecule, the “AMPA % DSPL @ 10 μM” value in experiment [2] is recorded as 7.9%. Also, the “KA % DSPL @ 10 μM” value in experiment [3] is recorded as 12.0%.

As to `CCc1nnc2c(=O)[nH]c3cc(Cl)c(Cl)cc3n12` [Compound 4, 1-ethyl-7,8-dichloro-1,2,4-triazolo[4,3-a]quinoxalin-4(5H)-one], in experiment [1], the inhibition at 10 µM was 53%. The “AMPA % DSPL @ 10 μM” value in experiment [2] (10 µM) was 55.1% and 52.3%. For the same molecule, in experiment [3], the “KA % DSPL @ 10 μM” value is on record as 21.4%.

Regarding `CCCc1nnc2cnc3cc(Cl)c(Cl)cc3n12` [Compound 5, 1-n-propyl-7,8-dichloro-1,2,4-triazolo[4,3-a]quinoxaline], the inhibition at 10 µM in experiment [1] was found to be 2%. Also, in experiment [2], the “AMPA % DSPL @ 10 μM” value is -1.6%. Further, the “KA % DSPL @ 10 μM” value in experiment [3] was 3.9%.

Regarding `CCCc1nnc2c(=O)[nH]c3cc(Cl)c(Cl)cc3n12` [Compound 6, 1-n-propyl-7,8-dichloro-1,2,4-triazolo[4,3-a]quinoxalin-4(5H)-one], in experiment [1], the inhibition at 10 µM was found to be 75%. The “AMPA % DSPL @ 10 μM” value in experiment [2] (10 µM) was 77.1% and 85.6%. In addition, the “KA % DSPL @ 10 μM” value in experiment [3] is 32.1%.

For `CCCCc1nnc2cnc3cc(Cl)c(Cl)cc3n12` [Compound 7, 1-n-butyl-7,8-dichloro-1,2,4-triazolo[4,3-a]quinoxaline], the inhibition at 10 µM in experiment [1] was -2%. Moreover, the “AMPA % DSPL @ 10 μM” value in experiment [2] was determined as 4.2%. In experiment [3], the “KA % DSPL @ 10 μM” value is recorded as -6.4%.

With `CCCCc1nnc2c(=O)[nH]c3cc(Cl)c(Cl)cc3n12` [Compound 8, 1-n-butyl-7,8-dichloro-1,2,4-triazolo[4,3-a]quinoxalin-4(5H)-one], the inhibition at 10 µM in experiment [1] was 60%. Also, in experiment [3], the “KA % DSPL @ 10 μM” value is 33.8%.

For `FC(F)(F)c1nnc2cnc3cc(Cl)c(Cl)cc3n12` [Compound 9, 1-trifluoromethyl-7,8-dichloro-1,2,4-triazolo[4,3-a]quinoxaline], the inhibition at 10 µM in experiment [1] was -6%.

`O=c1[nH]c2cc(Cl)c(Cl)cc2n2c(C(F)(F)F)nnc12` [Compound 10, 1-trifluoromethyl-7,8-dichloro-1,2,4-triazolo [4,3-a]quinoxalin-4(5H)-one]: in experiment [1], the inhibition at 10 µM was found to be 40%. Further, the “AMPA % DSPL @ 10 μM” value in experiment [2] (10 µM) is 56.8% and 38.5%. In experiment [3], the “KA % DSPL @ 10 μM” value is given as 12.5%.

In the case of `Clc1cc2ncc3nnc(-c4ccccc4)n3c2cc1Cl` [Compound 11, 1-phenyl-7,8-dichloro-1,2,4-triazolo[4,3-a]quinoxaline], in experiment [1], the inhibition at 10 µM was -3%. In experiment [2], the “AMPA % DSPL @ 10 μM” value is 1.7%. Also, in experiment [3], the “KA % DSPL @ 10 μM” value was 9.1%.

With `O=c1[nH]c2cc(Cl)c(Cl)cc2n2c(-c3ccccc3)nnc12` [Compound 12, 1-Phenyl-7,8-dichloro-1,2,4-triazolo[4,3-a]quinoxalin-4(5H)-one], the inhibition at 10 µM in experiment [1] was -1%. The “AMPA % DSPL @ 10 μM” value in experiment [2] was found to be 3.6%. For the same molecule, in experiment [3], the “KA % DSPL @ 10 μM” value is 8.2%.

On to `O=c1[nH]c2cc(Cl)c(Cl)cc2n2cnnc12` [Compound 12a, 7,8-dichloro-1,2,4-triazolo[4,3-a]quinoxalin-4(5H)-one], for which the “[^3 H]-Glycine Binding % DSPL10 @ 10 μM” value in experiment [1] (60 min, 10 µM) is 79% and 42%. Further, in experiment [2] (10 µM), the “AMPA % DSPL @ 10 μM” value is 64.3% and 67.9%.

Take `O=c1[nH]c2cc(Cl)cc(Cl)c2n2cnnc12` [Compound 14a, 7,9-dichloro-1,2,4-triazolo[4,3a]quinoxalin-4(5H)-one]: the inhibition at 10 µM in experiment [1] came to 87%.

For the molecule `Brc1ccc2ncc3nncn3c2c1` [Compound 15, 8-bromo-1,2,4-triazolo[4,3-a]quinoxaline], in experiment [1], the inhibition at 10 µM is -3%. For the same molecule, the “AMPA % DSPL @ 10 μM” value in experiment [2] came to 1.6%. Besides, in experiment [3], the “KA % DSPL @ 10 μM” value was -4.3%.

Consider `O=[N+]([O-])c1ccc2c(c1)ncc1nncn12` [Compound 16, 7-nitro-1,2,4-triazolo[4,3-a]quinoxaline], for which, in experiment [1], the inhibition at 10 µM is -5%. The “AMPA % DSPL @ 10 μM” value in experiment [2] was 1.7%. Besides, the “KA % DSPL @ 10 μM” value in experiment [3] is 3.0%.

Turning to `O=c1[nH]c2cc([N+](=O)[O-])ccc2n2cnnc12` [Compound 17, 7-nitro-1,2,4-triazolo[4,3-a]quinoxalin-4(5H)-one], in experiment [1], the inhibition at 10 µM is 52%. Moreover, the “AMPA % DSPL @ 10 μM” value in experiment [2] (10 µM) is 85.1% and 77.4%. The “KA % DSPL @ 10 μM” value in experiment [3] is 34.7%.

Consider `O=c1[nH]c2cc([N+](=O)[O-])c([N+](=O)[O-])cc2n2cnnc12` [Compound 18, 7,8-dinitro-1,2,4-triazolo[4,3-a]quinoxalin-4(5H)-one], for which the inhibition at 10 µM in experiment [1] came out at 50%. The “AMPA % DSPL @ 10 μM” value in experiment [2] (10 µM) was 77.4% and 55.0%. Moreover, the “KA % DSPL @ 10 μM” value in experiment [3] was 15.6%.

On to `O=c1[nH]c2ccc(Br)cc2n2nnnc12` [Compound 21, 8-bromotetrazolo[1,5-a]quinoxalin-4(5H)-one], for which the inhibition at 10 µM in experiment [1] is 6%. Also, the “AMPA % DSPL @ 10 μM” value in experiment [2] came out at 10.2%. For the same molecule, the “KA % DSPL @ 10 μM” value in experiment [3] was 30.8%.

On to `O=c1[nH]c2ccc([N+](=O)[O-])cc2n2nnnc12` [Compound 22, 8-nitrotetrazolo[1,5-a]quinoxalin-4(5H)-one], for which, in experiment [1], the inhibition at 10 µM amounted to 0%. The “AMPA % DSPL @ 10 μM” value in experiment [2] worked out at 0.7%. Moreover, the “KA % DSPL @ 10 μM” value in experiment [3] is reported as 0.5%.

Take `O=[N+]([O-])c1ccc2c(c1)ncc1nnnn12` [Compound 23, 7-nitrotetrazolo[1,5-a]quinoxaline]: in experiment [1], the inhibition at 10 µM was -1%. Moreover, the “AMPA % DSPL @ 10 μM” value in experiment [2] is given as 1.0%. In addition, the “KA % DSPL @ 10 μM” value in experiment [3] is -3.8%.

As to `O=c1[nH]c2cc([N+](=O)[O-])ccc2n2nnnc12` [Compound 24, 7-nitrotetrazolo[1,5-a]quinoxalin-4(5H)-one], in experiment [1], the inhibition at 10 µM worked out at 2%. The “AMPA % DSPL @ 10 μM” value in experiment [2] is on record as 38.4%. Further, in experiment [3], the “KA % DSPL @ 10 μM” value came to 2.8%.

In the case of `O=c1[nH]c2cc([N+](=O)[O-])c([N+](=O)[O-])cc2n2nnnc12` [Compound 25, 7,8-dinitrotetrazolo[1,5-a]quinoxalin-4(5H)-one], in experiment [1], the inhibition at 10 µM turned out to be 3%. For the same molecule, the “KA % DSPL @ 10 μM” value in experiment [3] (10 µM) was 0.4% and -2.1%.

For `[N-]=[N+]=Nc1cc2c(cc1F)ncc1nnnn12` [Compound 26, 7-fluoro-8-azidotetrazoloquinoxaline], in experiment [1], the “[^3 H]-Glycine Binding % DSPL10 @ 10 μM” value is -2%. The “AMPA % DSPL @ 10 μM” value in experiment [2] was -1.8%. Further, the “KA % DSPL @ 10 μM” value in experiment [3] was determined as 5.5%.

As to `[N-]=[N+]=Nc1cc2c(cc1F)[nH]c(=O)c1nnnn12` [Compound 27, 7-fluoro-8-azidotetrazoloquinoxalin-4(5H)-one], in experiment [1], the inhibition at 10 µM stood at 5%. Further, the “AMPA % DSPL @ 10 μM” value in experiment [2] is reported as 1.7%. Besides, the “KA % DSPL @ 10 μM” value in experiment [3] is 2.5%.

Turning to `O=c1[nH]c2cc(Cl)c(Cl)cc2n2nnnc12` [Compound 27a, 7,8-dichlorotetrazolo[1,5-a]quinoxalin-4(5H)-one], the inhibition at 10 µM in experiment [1] stood at 37%. For the same molecule, the “AMPA % DSPL @ 10 μM” value in experiment [2] stood at 38%.

For the molecule `O=c1[nH]c2cc(Cl)c(Cl)cc2c2ccnn12` [Compound 32, 8,9-dichloropyrazolo[1,5-c]quinazolin-5(6H)-one], the “AMPA % DSPL @ 10 μM” value in experiment [2] (10 µM) was 4.9% and 9.3%. Moreover, in experiment [3], the “KA % DSPL @ 10 μM” value was -0.1%.
